Holding throughout (type): organism-based
Data set [1] is described as follows: Ichthyotoxicity in gold fish assessed as death after 1 hr. Conditions: carassius auratus, in vivo; call rule not given here.
The test system of the next data set is Carassius auratus. The data set can be described thus: Ichthyotoxicity in gold fish assessed as inability to swim after 1 hr.
The next data set relates to Artemia. The data set can be described thus: Toxicity in brine shrimp. Conditions: in vivo.

In ChEMBL document CHEMBL1159249, “Malyngamide H, an ichthyotoxic amide possessing a new carbon skeleton from the Caribbean cyanobacterium Lyngbya majuscula” (J Nat Prod, 1995) one finds LC50, EC50 and Activity data, which are given here for one compound.

In brackets after ≈: the same amount, converted by molar mass.

Consider `C=C(CCNC(=O)CC/C=C/C[C@H](CCCCCCC)OC)[C@@]12O[C@@H]1CC=C(C)C2=O` [MALYNGAMIDE H], for which the LC50 (usually the concentration lethal to half of the exposed cells or organisms) at 1 h in data set [1] amounted to 5 µg/mL (≈ 11.6 µM). The EC50 (as a rule, the concentration needed to bring the measured effect to its halfway point) in the data set with Carassius auratus is 2 µg/mL (≈ 4.63 µM). Also, the Activity entry in the data set with Artemia is “Not Active”.
